Laboratory results reported in publication PMC12598616, “Design and optimization of caspase-1-responsive fluorescent probes for pyroptosis imaging and anti-pyroptosis drug screening” (Chemical Science, 2025).

Experiments:
caspase-1 [1] = target: T1, caspase-1 (Homo sapiens, UniProt P29466); assay: Reaction time of probes for caspase-1; format: biochemical; conditions: probe 5 μM, Cas-1 2 U/mL, assay buffer, 37 °C
T1 sequence (P29466 120-297 limits assumed): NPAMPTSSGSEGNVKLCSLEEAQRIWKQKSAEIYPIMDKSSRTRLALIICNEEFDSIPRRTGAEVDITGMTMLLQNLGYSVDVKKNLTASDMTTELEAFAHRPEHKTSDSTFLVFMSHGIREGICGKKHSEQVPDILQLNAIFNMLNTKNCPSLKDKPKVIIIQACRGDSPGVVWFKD
T1 sequence (P29466 317-404 limits assumed): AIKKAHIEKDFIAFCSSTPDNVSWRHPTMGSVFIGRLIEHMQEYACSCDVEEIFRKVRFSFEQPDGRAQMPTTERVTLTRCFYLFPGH
Description: The spectral and chemical properties of all probes were then evaluated. Upon interaction with Cas-1, the specific peptide of the probes is cleaved, leading to the disruption of the FRET process in the system and the recovery of donor fluorescence (Fig. 2a). Prior to fluorescence detection, the UV-vis absorption spectra of the probes were acquired. […] Subsequently, the sensitivity of the probes towards Cas-1 was measured in HEPES buffer (50 mM HEPES, 50 mM NaCl, 0.1% chaps, 5% glycerol, 10 mM DTT, 10 mM EDTA). […] The response differences among the probes were more intuitively observed by analyzing the standard curves of fluorescence intensity at 585 nm against the concentration of Cas-1 (Fig. 2b). […] The reaction kinetics of the probes were also measured by monitoring the fluorescence intensity of FPy1, YPy1 and WPy1 (0.5–4 μM) following incubation with Cas-1 (2 U mL^−1) (Fig. S3a–f). […] The reaction time of the probes was also investigated by monitoring the fluorescence spectra of the probes (5 μM) incubated with Cas-1 (2 U mL^−1) at various time intervals (Fig. S4a–c). […] Finally, the selectivity of the probes was evaluated. […]
To investigate the sensitivity of the probes for caspase-1, varying concentration of caspase-1 (0, 0.2, 0.4, 0.6, 0.8, 1.0, 1.25, 1.5, 1.75, 2, 2.5, 3 U/mL) were incubated with FPy1 (5 μM), YPy1 (5 μM) and WPy1 (5 μM) respectively in caspase-1 assay buffer (50 mM HEPES, 50 mM NaCl, 0.1 % chaps, 5 % glycerol, 10 mM DTT, 10 mM EDTA) at 37 °C for 2 hours. Fluorescence spectra were recorded using Hitachi F-2700 spectrophotometer with an excitation at 510 nm (Photomultiplier voltage 700 V; Slit widths ex: 10 nm and em =5.0 nm). The fluorescence intensity of FPy1, YPy1 and WPy1 at 585 nm were plotted against the concentration of caspase-1, and a linear regression fitted from the corresponding concentration of caspase-1, and linear regression was applied to determine the slope k. The limit of detection (LoD) was calculated from 3σ/k, in which σ represents the standard deviation of 15 blank measurements. […]

caspase-1 [2] = target: T1, caspase-1; assay: Sensitivity of probes for caspase-1 (fluorescence at 585 nm); format: biochemical; conditions: for linear fitting range of Cas-1 concentration: fluorescence intensity at 585 nm vs Cas-1 concentration; for enhancement of fluorescence intensity at 585 nm: Cas-1 0–3 U/mL, assay buffer 50 mM HEPES, 50 mM NaCl, 0.1% chaps, 5% glycerol, 10 mM DTT, 10 mM EDTA, λex 510 nm
Description: The spectral and chemical properties of all probes were then evaluated. Upon interaction with Cas-1, the specific peptide of the probes is cleaved, leading to the disruption of the FRET process in the system and the recovery of donor fluorescence (Fig. 2a). Prior to fluorescence detection, the UV-vis absorption spectra of the probes were acquired. […] Subsequently, the sensitivity of the probes towards Cas-1 was measured in HEPES buffer (50 mM HEPES, 50 mM NaCl, 0.1% chaps, 5% glycerol, 10 mM DTT, 10 mM EDTA). […] The response differences among the probes were more intuitively observed by analyzing the standard curves of fluorescence intensity at 585 nm against the concentration of Cas-1 (Fig. 2b). […] The reaction kinetics of the probes were also measured by monitoring the fluorescence intensity of FPy1, YPy1 and WPy1 (0.5–4 μM) following incubation with Cas-1 (2 U mL^−1) (Fig. S3a–f). […] The reaction time of the probes was also investigated by monitoring the fluorescence spectra of the probes (5 μM) incubated with Cas-1 (2 U mL^−1) at various time intervals (Fig. S4a–c). […] Finally, the selectivity of the probes was evaluated. A series of potential biologically relevant interferents were selected, and the results illustrated that these interferents had no effect on the probes (Fig. S5a–c). Further selectivity validation was performed through incubating with caspase-3 (1 μg mL^−1), caspase-4 (2 U mL^−1), caspase-8 (1 μg mL^−1) from the caspase protease family. […] Therefore, FPy1 appeared to be the prime candidate for Cas-1 imaging applications. […]
Cell culture plates were sourced from Wuxi NEST Biotechnology. Recombinant human caspase-1, caspase-3, caspase-4, and caspase-8 were obtained from Abcam and MCE (Shanghai, China). Anti-cleaved caspase-1 antibody, anti-GAPDH antibody, and goat anti-Rabbit/anti-mouse lgG/HRP were purchased from CST (USA) and Beyotime […]
(Shanghai, China). […]
Medical College (ethical approval number ZJCLA-IACUC-20011003).
(also on this page, place not known: Wang,*f, Wang*abg Supplementary Information (SI) for Chemical Science. This journal is © The Royal Society of Chemistry 2025)
(1 picture or pasted object on this page, not shown here) […]
mixture was stirred for 3 h. DCM was removed under vacuum, and the residue was purified by silica gel column chromatography (DCM/MeOH, 180/1) to afford WPy1 as a dark purple solid (21 mg, 6 % yield). HRMS (ESI+): calcd […]
Analysis of probe purity by LC-MSD
Prepare dilute solutions of FPy1, YPy1 and WPy1 using chromatographic-grade acetonitrile and transfer them to sample vials. Begin with an initial mobile phase consisting of 20% acetonitrile (0.05 % formic acid) and 80% H2O (0.05 % formic acid). Over the course of 30 minutes, implement a gradient change to a mobile phase of 90% acetonitrile (0.05 % formic acid) and 10% H2O (0.05 % FA). Under the elution conditions, LC-MSD was performed on the above probe solutions and blank solvent acetonitrile.
Sensitivity of probes for caspase-1
To investigate the sensitivity of the probes for caspase-1, varying concentration of caspase-1 (0, 0.2, 0.4, 0.6, 0.8, 1.0, 1.25, 1.5, 1.75, 2, 2.5, 3 U/mL) were incubated with FPy1 (5 μM), YPy1 (5 μM) and WPy1 (5 μM) respectively in caspase-1 assay buffer (50 mM HEPES, 50 mM NaCl, 0.1 % chaps, 5 % glycerol, 10 mM DTT, 10 mM EDTA) at 37 °C for 2 hours. Fluorescence spectra were recorded using Hitachi F-2700 spectrophotometer with an excitation at 510 nm (Photomultiplier voltage 700 V; Slit widths ex: 10 nm and em =5.0 nm). The fluorescence intensity of FPy1, YPy1 and WPy1 at 585 nm were plotted against the concentration of caspase-1, and a linear regression fitted from the corresponding concentration of caspase-1, and linear regression was applied to determine the slope k. The limit of detection (LoD) was calculated from 3σ/k, in which σ represents the standard deviation of 15 blank measurements.
Various concentrations of FPy1, YPy1 and WPy1 (0.5, 1, 2, 4 μM) in 100 μL enzyme assay buffer (50 mM HEPES, 50 […]

Row | Substance | time to maximum fluorescence intensity at 585 nm (reaction time) (caspase-1 [1]) [min] | linear fitting range of Cas-1 concentration (caspase-1 [2]; probe 5 μM, 37 °C, 2 h) | enhancement of fluorescence intensity at 585 nm (caspase-1 [2]; probe 5 μM, 37 °C, 2 h) | limit of detection (caspase-1 [2]; Cas-1, 3σ/k, σ from 15 blank measurements, probe 5 μM, 37 °C, 2 h, estimated) [U L^−1] | fluorescence intensity at 585 nm at the same Cas-1 concentration (caspase-1 [2]; before maximum, compared to YPy1, probe 5 μM) | catalytic efficiency of Cas-1 for the probe (caspase-1 [2]; compared with YPy1, inferred from intensity at same Cas-1 concentration)
1 | –YVADG– [YPy1, caspase-1-responsive FRET probe with recognition peptide –YVADG–; RhoB donor, hNR quencher] | 60 | 0–2 U mL^−1 | ~19.2 fold |  |  | 
2 | –FLTDG– [FPy1, RhoB donor, hNR quencher] | ≤ 40 | 0–1 U mL^−1 | approximately 20.2 fold | 3.7 | stronger fluorescence intensity at 585 nm compared to YPy1 | higher catalytic efficiency for FPy1 than YPy1
